Assay [1] deals with model rats with liver fibrosis. Put plainly: Effects of rLZ-8 on body mass, liver weight and liver indexes of CCl4 model rats with liver fibrosis. The assay is classed as in vivo. Particulars: 4 weeks. On the procedure:
(§1) Experiment grouping: model group, positive drug group and the treatment group were given subcutaneous injection of 50% volume fraction carbon tetrachloride olive oil solution, twice a week, starting 8:00 in the morning on Mondays and Thursdays, lasting for 8 weeks to replicate the cirrhosis model. For the first time the dose was 0.5 ml/100 g in accordance with weights of the mice, then 0.3 ml/100 g every four days in accordance with weights of the mice. They ate and drank water freely. At the same time on Mondays changes in rats' weights were monitored and the possibility of liver failure was preliminary estimated in order to reduce the mortality rated caused by replicating the cirrhosis model.
(§2) Treating process: In the control group (group A), the model group (group B), the positive drug group (glycyrrhizin group C), the low-dose treatment group (group D), the medium-dose treatment group (group E) and the high-dose treatment group (group F), 8 weeks after the cirrhosis models were built, the rats were anesthetized with ether, blood was drawn from retinal venous plexus to test serum liver biochemical indicators; the positive drug group were given subcutaneous injection of Ganlixin solution, the injection volume was 12.5 mg/kg. The process was performed once a day, lasting for 4 weeks; for the low, medium and high rLZ-8 dose groups, the concentration of subcutaneous injections were 15 μg/kg, 30 μg/kg and […] respectively; the injections were given once a day for 4 weeks; till the end of the 12th week, the mice were denied food but not water for 18 hours and anesthetized with ether. The eyeball blood of the rats was drawn, about […] samples of blood were centrifuged to get serum and then were put into a −20° C. deep freezer to be tested for serum biochemical indexes.

Assay [2] relates to model rats with liver fibrosis. In words: Effects of rLZ-8 on serum ALT, AST and ALB of CCl4 model rats with liver fibrosis. Format: in vivo. To be noted: Group C: glycyrrhizin (Ganlixin) 12.5 mg/kg s.c. once a day. As for the experimental part:
as §1, §2
In the present experiment, the rats' liver fibrosis models were replicated by CCl4: olive oil (1:1) for 8 weeks. […] Compared with the control group, the difference was obvious and was statistically significant. The effect of medium dose rLZ-8 was the best.

[3] abbreviates: Group C: glycyrrhizin (Ganlixin solution) 12.5 mg/kg subcutaneous once a day.

With `CC1(C)[C@@H](O[C@H]2O[C@H](C(=O)O)[C@@H](O)[C@H](O)[C@H]2O[C@@H]2O[C@H](C(=O)O)[C@@H](O)[C@H](O)[C@H]2O)CC[C@]2(C)[C@H]3C(=O)C=C4[C@@H]5C[C@@](C)(C(=O)O)CC[C@]5(C)CC[C@@]4(C)[C@]3(C)CC[C@@H]12` [glycyrrhizin], the Model weight in assay [1] (Group C: glycyrrhizin (Ganlixin solution) 12.5 mg/kg s.c. once a day, weight after modelling) came out at 303.5 ± 39.2 g. In assay [1] (setting [3]), the Final weights was determined as 397.1 ± 46.4 g, the Liver indexes came to 3.1 ± 0.4% and the Liver weights came out at 12.43 ± 2.25 g. In assay [2] (Day 10), the “serum ALB” value was determined as 34.8 ± 0.2 g/L, the “serum ALT” value is 143.3 ± 0.9 U/L and the “serum AST” value stood at 176.2 ± 6.1 U/L. In addition, in assay [2] (Day 20), the “serum ALB” value was found to be 30.0 ± 0.2 g/L, the “serum ALT” value is 126.2 ± 1.3 U/L and the “serum AST” value is 205.8 ± 4.2 U/L. In assay [2] (Day 30), the “serum ALB” value is 32.5 ± 0.1 g/L, the “serum ALT” value came to 49.5 ± 0.6 U/L and the “serum AST” value came to 59.0 ± 1.9 U/L.

The values are drawn from US20160303189A1, “Applications of Recombined Ganoderma Lucidum Immunoregulation Protein in Preparing Drugs for Treating Tissue Fibrosis” (priority 2014, published 2016).
